We go through 17 molecules from ChEMBL document CHEMBL5050844 (2019).

Molecules are shown by their SMILES. pIC50: −log10 of the molar value.

A short description of assay [1]: Induction of anti-CD3 antibodies-stimulated human T cell activation at 1 uM assessed fold increase in CD25 expression measured by ELISA assay. Further: reference of the scale not given here. Format: functional, T cell line. In general terms: In an ELISA, binding on a coated surface is turned into a signal by an enzyme label.
The nature of assay [2]: Induction of anti-CD3/CD28 antibodies-stimulated human T cell activation at 1 uM assessed fold increase in IL-2 secretion measured by ELISA assay. Type of assay: functional, T cell line.
The nature of assay [3]: Induction of anti-CD3/CD28 antibodies-stimulated human T cell activation at 0.3 uM assessed fold increase in CD25 expression measured by ELISA assay. Type of assay: functional, T cell line.
Assay [4] can be described thus: Induction of anti-CD3/CD28 antibodies-stimulated human T cell activation at 1 uM assessed fold increase in CD25 expression measured by ELISA assay. Format: functional, T cell line.
The nature of assay [5]: Induction of anti-CD3 antibodies-stimulated human T cell activation at 1 uM assessed fold increase in IL-2 secretion measured by ELISA assay. Further: reference of the scale not given here. Format: functional, T cell line.
The nature of assay [6]: Induction of anti-CD3/CD28 antibodies-stimulated human T cell activation at 0.3 uM assessed fold increase in IL-2 secretion measured by ELISA assay. Type of assay: functional, T cell line.
Assay [7] addresses E3 ubiquitin-protein ligase CBL-B (Homo sapiens, UniProt Q13191). Kind of assay: Inhibition of N-terminal Avi-tagged human CBL-B (36 to 427 residues) incubated with 60 nM Src kinase for 1.5 hrs followed by incubation with fluorescently labeled UbcH5B-Ub for 1 hr and measured by TR-FRET assay. Type of assay: single protein. A general note: In TR-FRET formats the signal depends on donor and acceptor labels being close together.

E3 ubiquitin-protein ligase CBL-B, sequence (Q13191 whole entry, the tested form may be a part): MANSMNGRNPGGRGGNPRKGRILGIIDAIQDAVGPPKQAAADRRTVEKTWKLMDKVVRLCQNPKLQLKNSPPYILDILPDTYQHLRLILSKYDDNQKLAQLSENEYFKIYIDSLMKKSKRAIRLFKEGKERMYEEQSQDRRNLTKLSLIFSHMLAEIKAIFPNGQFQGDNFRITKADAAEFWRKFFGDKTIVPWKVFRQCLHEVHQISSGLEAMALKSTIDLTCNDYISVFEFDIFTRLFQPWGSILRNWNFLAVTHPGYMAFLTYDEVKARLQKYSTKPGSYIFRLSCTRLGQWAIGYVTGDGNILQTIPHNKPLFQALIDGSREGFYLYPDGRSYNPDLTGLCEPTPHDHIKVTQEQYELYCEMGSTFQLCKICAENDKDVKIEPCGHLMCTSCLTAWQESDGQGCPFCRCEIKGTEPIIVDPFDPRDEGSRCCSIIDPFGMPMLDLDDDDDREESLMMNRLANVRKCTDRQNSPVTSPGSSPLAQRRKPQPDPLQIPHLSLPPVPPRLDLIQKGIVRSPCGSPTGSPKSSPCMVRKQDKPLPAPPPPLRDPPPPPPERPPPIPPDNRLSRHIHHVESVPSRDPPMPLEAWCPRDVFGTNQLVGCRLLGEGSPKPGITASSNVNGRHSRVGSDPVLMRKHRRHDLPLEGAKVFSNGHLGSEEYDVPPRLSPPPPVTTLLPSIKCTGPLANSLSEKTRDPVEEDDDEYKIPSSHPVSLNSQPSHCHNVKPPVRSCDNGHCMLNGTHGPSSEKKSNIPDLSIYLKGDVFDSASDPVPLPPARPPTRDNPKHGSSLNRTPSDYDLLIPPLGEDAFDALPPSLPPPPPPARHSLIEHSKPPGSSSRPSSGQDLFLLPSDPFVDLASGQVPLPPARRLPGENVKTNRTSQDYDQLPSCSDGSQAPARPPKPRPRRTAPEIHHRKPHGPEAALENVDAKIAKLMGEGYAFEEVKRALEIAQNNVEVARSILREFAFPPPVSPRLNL

What is called pIC50 is −log10 of the IC50, conventionally taken in molar units. For the molecule `COc1cccc2c1CN(Cc1cc3c(c(C(F)(F)F)c1)CN(c1cccc(C4(Cc5nncn5C)COC4)c1)C3=O)C2`, the “fold change (FC)” value is reported as “>=1.001” in assay [1]; “>=7.5” in assay [2]; 1.51 in assay [3]; 1.51 in assay [4]; “>=0.201” in assay [5]; 5 in assay [6]. Also, the pIC50 in assay [7] was over 7.00.

As to `Cn1cnnc1CC1(c2cccc(N3Cc4c(cc(CN5CC(F)C5(C)C)cc4C(F)(F)F)C3=O)c2)COC1` (centres undefined), the “fold change (FC)” value in assay [1] is “>=1.001”; in assay [2] it was 5; in assay [3], 1.31; in assay [4] it was 1.31; in assay [5] it was 0.101; in assay [6] it was 2.51. The molecule also had a pIC50 in assay [7] of over 7.00.

Take `CN1CC2CC1CN2c1cc2c(c(C(F)(F)F)c1)CN(c1cccc([C@@](C)(F)C(F)(F)c3nncn3C)c1)C2=O` (single isomer, unassigned; 563): the “fold change (FC)” value is given as 0.801 in assay [1]; 2.51 in assay [2]; 1.01 in assay [3]; 1.31 in assay [4]; 0.051 in assay [5]; 1.01 in assay [6]. The same molecule showed a pIC50 in assay [7] of over 7.00.

With `Cc1cc(C(=O)Nc2cccc(C3(Cc4nncn4C)CC(F)(F)C3)c2)nc(C2CC2)n1`, the “fold change (FC)” value in assay [1] is “>=1.001”; in assay [2], “>=7.5”; in assay [3], 1.01; in assay [4], 1.01; in assay [5], “>=0.201”; in assay [6], 5. In addition, the pIC50 in assay [7] is over 7.00.

Consider `Cn1cnnc1CC1(c2cccc(N3Cc4c(cc(CN5CC[C@H](CO)C(F)(F)C5)cc4C(F)(F)F)C3=O)c2)COC1`, for which the “fold change (FC)” value in assay [1] is listed as “>=1.001”; in assay [2], “>=7.5”; in assay [3], 1.31; in assay [4], 1.31; in assay [5] it was 0.151; in assay [6] it was “>=7.5”. For the same molecule, in assay [7], the pIC50 was over 7.00.

For `C[C@H](c1cc2c(c(C(F)(F)F)c1)CN(c1cccc(C3(Cc4nncn4C)COC3)c1)C2=O)N1CC(C)(F)C1`, the “fold change (FC)” value in assay [1] is “>=1.001”; in assay [2], “>=7.5”; in assay [3] it was 1.51; in assay [4], 1.51; in assay [5], “>=0.201”; in assay [6], 5. Besides, the pIC50 in assay [7] is over 7.00.

For the molecule `Cn1cnnc1[C@@H](F)C1(c2cccc(N3Cc4c(cc(CN5[C@H]6CC[C@H]5CC(F)C6)cc4C(F)(F)F)C3=O)c2)COC1` (some centres undefined), the “fold change (FC)” value in assay [1] is recorded as 0.801; in assay [2], “>=7.5”; in assay [3], “>=1.76”; in assay [4], “>=1.76”; in assay [5], “>=0.201”; in assay [6] it was 2.51. In addition, in assay [7], the pIC50 was over 7.00.

On to `CC(O)c1cc2c(c(C(F)(F)F)c1)CN(c1cccc(C3(Cc4nncn4C)COC3)c1)C2=O` (centres undefined), for which the “fold change (FC)” value was “>=1.001” in assay [1]; 2.51 in assay [2]; 1.01 in assay [3]; 1.01 in assay [4]; 0.151 in assay [5]; 1.01 in assay [6]. The molecule also showed a negative-log IC50 (pIC50) in assay [7] of over 7.00.

Regarding `Cc1cc(C(=O)Nc2cccc(C3(Cc4nocc4C)COC3)c2)nc(C2CC2)n1`, the “fold change (FC)” value in assay [1] is “>=1.001”; in assay [2], “>=7.5”; in assay [3] it was 1.31; in assay [4], 1.31; in assay [5], “>=0.201”; in assay [6] it was “>=7.5”. Moreover, the negative logarithm of the IC50 (pIC50) in assay [7] was over 7.00.

As to `Cn1cnnc1CC1(c2cccc(N3Cc4c(cc(N5CCN6CCC[C@@H]6C5)cc4C(F)(F)F)C3=O)c2)COC1`, the “fold change (FC)” value in assay [1] is “>=1.001”; in assay [2], “>=7.5”; in assay [3], “>=1.76”; in assay [4] it was “>=1.76”; in assay [5], “>=0.201”; in assay [6], “>=7.5”. The same molecule showed a pIC50 in assay [7] of over 7.00.

As to `Cn1cnnc1CC1(c2cccc(N3Cc4c(cc(CN5CCC6CC6C5)cc4C(F)(F)F)C3=O)c2)COC1` (centres undefined), the “fold change (FC)” value in assay [1] was “>=1.001”; in assay [2], “>=7.5”; in assay [3], 1.31; in assay [4], 1.31; in assay [5], “>=0.201”; in assay [6] it was “>=7.5”. In assay [7], the pIC50 was over 7.00.

Turning to `Cn1cnnc1C[C@@]1(c2cccc(N3Cc4c(cc(CN5CCC6(CC6)C5)cc4C(F)(F)F)C3=O)c2)CCOC1`, the “fold change (FC)” value is given as 0.801 in assay [1]; “>=7.5” in assay [2]; 1.01 in assay [3]; 1.01 in assay [4]; 0.101 in assay [5]; 2.51 in assay [6]. The pIC50 in assay [7] is over 7.00.

Consider `Cn1cnnc1CC1(c2cccc(N3Cc4c(cc(CN5CCc6ccccc6C5)cc4C(F)(F)F)C3=O)c2)COC1`, for which the “fold change (FC)” value is listed as “>=1.001” in assay [1]; “>=7.5” in assay [2]; 1.01 in assay [3]; 1.31 in assay [4]; “>=0.201” in assay [5]; 5 in assay [6]. In addition, in assay [7], the pIC50 was over 7.00.

As to `Cc1conc1CC1(c2cccc(NC(=O)c3cc(CN4CCC5(CC5)C4)cc(C4CC4)n3)c2)COC1`, the “fold change (FC)” value is “>=1.001” in assay [1]; “>=7.5” in assay [2]; 1.31 in assay [3]; 1.31 in assay [4]; “>=0.201” in assay [5]; “>=7.5” in assay [6]. This molecule also had a pIC50 in assay [7] of over 7.00.

For `CC(c1cc2c(c(C3CC3)n1)CN(c1cccc(C3(Cc4nncn4C)COC3)c1)C2=O)N1CCCCC1` (centres undefined), the “fold change (FC)” value is reported as 0.601 in assay [1]; “>=7.5” in assay [2]; “>=1.76” in assay [3]; “>=1.76” in assay [4]; “>=0.201” in assay [5]; 5 in assay [6]. The molecule further had a pIC50 in assay [7] of over 7.00.

Regarding `CCOc1cc(N2Cc3c(cc([C@@H](C)N4CC[C@H](F)C4)cc3C(F)(F)F)C2=O)cc(C2(Cc3nncn3C)COC2)c1`, the “fold change (FC)” value is listed as “>=1.001” in assay [1]; “>=7.5” in assay [2]; 1.31 in assay [3]; 1.51 in assay [4]; “>=0.201” in assay [5]; “>=7.5” in assay [6]. Besides, in assay [7], the pIC50 is over 7.00.

Regarding `CN1CC2CC(C1)N2c1cc2c(c(C(F)(F)F)c1)CN(c1cccc([C@@](C)(F)C(F)(F)c3nncn3C)c1)C2=O`, the “fold change (FC)” value in assay [1] is 0.801; in assay [2], 2.51; in assay [3] it was 1.01; in assay [4], 1.01; in assay [5], 0.051; in assay [6] it was 1.01. In addition, the pIC50 in assay [7] is over 7.00.
